ChEMBL document CHEMBL1143380, “N-[6-amino-2-(heteroaryl)pyrimidin-4-yl]acetamides as A2A receptor antagonists with improved drug like properties and in vivo efficacy” (J Med Chem, 2009)
Values after ≈ are worked out from the molar mass of the structure shown.

How the values were obtained:
[1] = Tmax in rat at 10 mg/kg, po; format: ADME, organism-based; design: dose 10 mg/kg, route oral; conditions: in vivo
Adenosine receptor A2a [2] = target: T1, Adenosine receptor A2a (Homo sapiens, UniProt P29274); test: Displacement of [3H]ZM241385 from human adenosine A2A receptor expressed in HEK293 cells; format: cell-based
Adenosine receptor A2a [3] = target: T1, Adenosine receptor A2a; test: Antagonist activity at human adenosine A2A receptor assessed as inhibition of CGS-21680-stimulated cAMP production; format: functional
Adenosine receptor A1 = target: T2, Adenosine receptor A1 (Homo sapiens, UniProt P30542); test: Displacement of [3H]DPCPX from human adenosine A1 receptor expressed in HEK293 cells; format: cell-based
T2 sequence (P30542 whole entry): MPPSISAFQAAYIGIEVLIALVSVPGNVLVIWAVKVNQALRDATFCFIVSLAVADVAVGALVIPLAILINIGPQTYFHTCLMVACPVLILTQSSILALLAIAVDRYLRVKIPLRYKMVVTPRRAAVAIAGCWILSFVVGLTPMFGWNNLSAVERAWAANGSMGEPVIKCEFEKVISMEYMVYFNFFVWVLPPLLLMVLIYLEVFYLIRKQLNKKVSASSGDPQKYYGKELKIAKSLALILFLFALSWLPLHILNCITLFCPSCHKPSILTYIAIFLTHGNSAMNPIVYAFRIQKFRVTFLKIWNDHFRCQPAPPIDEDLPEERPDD

[4] = Lipophilicity, log D of the compound; format: physicochemical; conditions: octanol/water
[5] = Solubility at pH 7.4; format: physicochemical; conditions: buffer
Adenosine receptor A2a [6] = target: Adenosine receptor A2a (Rattus norvegicus, UniProt P30543); test: Displacement of [3H]ZM241385 from rat adenosine A2A receptor expressed in CHO cells; format: cell-based
Cytochrome P450 3A4 = Cytochrome P450 3A4 (Homo sapiens, UniProt P08684); test: Inhibition of CYP3A4; format: ADME
Cytochrome P450 2D6 = Cytochrome P450 2D6 (Homo sapiens, UniProt P10635); test: Inhibition of CYP2D6; format: ADME
Cytochrome P450 2C9 = Cytochrome P450 2C9 (Homo sapiens, UniProt P11712); test: Inhibition of CYP2C9; format: ADME
Cytochrome P450 2C19 = Cytochrome P450 2C19 (Homo sapiens, UniProt P33261); test: Inhibition of CYP2C19; format: ADME
Cytochrome P450 1A2 = target: T3, Cytochrome P450 1A2 (Homo sapiens, UniProt P05177); test: Inhibition of CYP1A2; format: ADME
T3 sequence (P05177 whole entry): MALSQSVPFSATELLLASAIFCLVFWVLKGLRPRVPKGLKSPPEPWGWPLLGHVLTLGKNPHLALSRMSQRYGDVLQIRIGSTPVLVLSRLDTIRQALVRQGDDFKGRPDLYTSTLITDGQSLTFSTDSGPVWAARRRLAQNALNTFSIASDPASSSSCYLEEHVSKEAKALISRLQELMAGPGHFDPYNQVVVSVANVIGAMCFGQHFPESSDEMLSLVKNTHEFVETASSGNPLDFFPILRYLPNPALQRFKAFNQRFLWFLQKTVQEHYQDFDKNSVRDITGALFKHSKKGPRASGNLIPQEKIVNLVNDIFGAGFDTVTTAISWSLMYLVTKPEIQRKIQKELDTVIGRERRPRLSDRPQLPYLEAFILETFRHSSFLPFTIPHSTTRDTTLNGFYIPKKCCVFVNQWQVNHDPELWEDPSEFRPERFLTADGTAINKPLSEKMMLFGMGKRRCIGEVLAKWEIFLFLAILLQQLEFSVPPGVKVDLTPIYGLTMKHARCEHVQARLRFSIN

[7] = Permeability across human Caco-2 cells; format: ADME, cell-based; conditions: read-out: permeability
Caco-2 = test: Ratio of permeability from apical to basolateral side over basolateral to apical side in human Caco-2 cells; format: ADME, cell-based
hERG (KCNH2) = hERG (KCNH2) (Homo sapiens, UniProt Q12809); test: Inhibition of human ERG at 10 uM by patch clamp technique
[8] = Drug level in rat brain at 10 mg/kg, po after 1 hr; format: ADME, organism-based; design: dose 10 mg/kg, route oral; conditions: read-out: Drug uptake
[9] = Drug level in rat brain at 10 mg/kg, po after 4 hrs; format: ADME, organism-based; design: dose 10 mg/kg, route oral; conditions: read-out: Drug uptake
[10] = Plasma concentration in rat at 10 mg/kg, po after 1 hr; format: ADME, organism-based; design: dose 10 mg/kg, route oral
[11] = Plasma concentration in rat at 10 mg/kg, po after 4 hrs; format: ADME, organism-based; design: dose 10 mg/kg, route oral
[12] = Ratio of drug level in brain to plasma in rat at 10 mg/kg, po after 1 hr; format: ADME, organism-based; design: dose 10 mg/kg, route oral; conditions: brain and plasma, read-out: BPR
[13] = Ratio of drug level in brain to plasma in rat at 10 mg/kg, po after 4 hrs; format: ADME, organism-based; design: dose 10 mg/kg, route oral; conditions: brain and plasma, read-out: BPR
Rattus norvegicus [14] = test: Inhibition of haloperidol-induced catalepsy in rat assessed as reduction in descent latency at 10 mg/kg, po after 2 hrs; format: organism-based; design: dose 10 mg/kg, route oral; conditions: in vivo
Rattus norvegicus [15] = test: Inhibition of haloperidol-induced catalepsy in rat assessed as reduction in descent latency at 30 mg/kg, po after 2 hrs; format: organism-based; design: dose 30 mg/kg, route oral; conditions: in vivo
Rattus norvegicus [16] = test: Potentiation of […]-induced rotational behavior in unilateral 6-hydroxydopamine lesioned po dosed rat after 5 hrs; format: ADME, organism-based; conditions: in vivo
Adenosine receptor A2b = target: T4, Adenosine receptor A2b (Homo sapiens, UniProt P29275); test: Inhibition of human adenosine A2B receptor
T4 sequence (P29275 whole entry): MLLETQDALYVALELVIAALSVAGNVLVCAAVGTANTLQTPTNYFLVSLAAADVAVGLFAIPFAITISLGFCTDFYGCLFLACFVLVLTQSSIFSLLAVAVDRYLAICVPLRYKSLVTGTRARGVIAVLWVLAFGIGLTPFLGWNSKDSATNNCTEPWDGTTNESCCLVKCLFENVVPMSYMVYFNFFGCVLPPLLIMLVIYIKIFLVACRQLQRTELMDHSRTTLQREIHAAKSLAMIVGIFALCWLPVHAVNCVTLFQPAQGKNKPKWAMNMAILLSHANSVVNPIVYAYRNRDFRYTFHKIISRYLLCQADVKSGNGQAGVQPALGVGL

Adenosine receptor A3 = target: T5, Adenosine receptor A3 (Homo sapiens, UniProt P0DMS8); test: Inhibition of human adenosine A3 receptor
T5 sequence (P0DMS8 whole entry): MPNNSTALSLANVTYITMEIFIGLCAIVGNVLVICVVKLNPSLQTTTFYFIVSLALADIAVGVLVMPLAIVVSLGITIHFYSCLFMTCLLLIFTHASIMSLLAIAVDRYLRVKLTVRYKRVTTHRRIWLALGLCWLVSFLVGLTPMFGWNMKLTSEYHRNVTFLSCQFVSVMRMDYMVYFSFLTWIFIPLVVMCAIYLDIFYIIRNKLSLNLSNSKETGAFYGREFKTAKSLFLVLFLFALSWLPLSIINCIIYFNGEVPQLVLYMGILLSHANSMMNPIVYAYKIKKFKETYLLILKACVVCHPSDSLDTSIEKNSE

[17] = Plasma concentration in rat at 3 mg/kg, po after 2 hrs; format: ADME, organism-based; design: dose 3 mg/kg, route oral
[18] = Plasma concentration in rat at 10 mg/kg, po after 2 hrs; format: ADME, organism-based; design: dose 10 mg/kg, route oral
[19] = Plasma concentration in rat at 30 mg/kg, po after 2 hrs; format: ADME, organism-based; design: dose 30 mg/kg, route oral
[20] = Drug level in rat brain at 3 mg/kg, po after 2 hrs; format: ADME, organism-based; design: dose 3 mg/kg, route oral; conditions: read-out: Drug uptake
[21] = Drug level in rat brain at 10 mg/kg, po after 2 hrs; format: ADME, organism-based; design: dose 10 mg/kg, route oral; conditions: read-out: Drug uptake
[22] = Drug level in rat brain at 30 mg/kg, po after 2 hrs; format: ADME, organism-based; design: dose 30 mg/kg, route oral; conditions: read-out: Drug uptake
[23] = Ratio of drug level in brain to plasma in rat at 3 mg/kg, po after 2 hrs; format: ADME, organism-based; design: dose 3 mg/kg, route oral; conditions: brain and plasma
[24] = Ratio of drug level in brain to plasma in rat at 10 mg/kg, po after 2 hrs; format: ADME, organism-based; design: dose 10 mg/kg, route oral; conditions: brain and plasma
[25] = Ratio of drug level in brain to plasma in rat at 30 mg/kg, po after 2 hrs; format: ADME, organism-based; design: dose 30 mg/kg, route oral; conditions: brain and plasma

T1 sequence (P29274 whole entry): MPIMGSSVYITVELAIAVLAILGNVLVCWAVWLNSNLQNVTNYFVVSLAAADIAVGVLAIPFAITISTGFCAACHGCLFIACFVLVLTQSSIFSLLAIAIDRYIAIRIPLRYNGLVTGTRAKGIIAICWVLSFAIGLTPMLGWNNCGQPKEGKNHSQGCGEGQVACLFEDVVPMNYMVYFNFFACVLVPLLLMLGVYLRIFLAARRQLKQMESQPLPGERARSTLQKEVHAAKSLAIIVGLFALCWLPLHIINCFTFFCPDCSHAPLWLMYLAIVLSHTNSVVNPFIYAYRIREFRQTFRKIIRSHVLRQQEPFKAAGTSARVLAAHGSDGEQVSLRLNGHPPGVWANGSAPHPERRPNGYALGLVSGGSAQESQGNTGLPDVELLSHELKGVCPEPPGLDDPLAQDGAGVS
Sequence of Adenosine receptor A2a (Rattus norvegicus, UniProt P30543) (P30543 whole entry): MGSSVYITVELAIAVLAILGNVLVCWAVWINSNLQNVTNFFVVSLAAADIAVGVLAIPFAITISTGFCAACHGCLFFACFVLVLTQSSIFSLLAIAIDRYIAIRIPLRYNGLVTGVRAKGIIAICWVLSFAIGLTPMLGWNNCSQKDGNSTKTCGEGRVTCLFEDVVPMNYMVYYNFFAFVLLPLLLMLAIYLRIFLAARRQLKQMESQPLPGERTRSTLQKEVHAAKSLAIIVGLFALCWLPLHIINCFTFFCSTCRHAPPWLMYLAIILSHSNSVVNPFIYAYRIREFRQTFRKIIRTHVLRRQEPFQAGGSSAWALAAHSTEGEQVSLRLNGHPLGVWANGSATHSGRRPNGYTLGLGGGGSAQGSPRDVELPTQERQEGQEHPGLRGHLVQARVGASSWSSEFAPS
Sequence of hERG (KCNH2) (Q12809 whole entry): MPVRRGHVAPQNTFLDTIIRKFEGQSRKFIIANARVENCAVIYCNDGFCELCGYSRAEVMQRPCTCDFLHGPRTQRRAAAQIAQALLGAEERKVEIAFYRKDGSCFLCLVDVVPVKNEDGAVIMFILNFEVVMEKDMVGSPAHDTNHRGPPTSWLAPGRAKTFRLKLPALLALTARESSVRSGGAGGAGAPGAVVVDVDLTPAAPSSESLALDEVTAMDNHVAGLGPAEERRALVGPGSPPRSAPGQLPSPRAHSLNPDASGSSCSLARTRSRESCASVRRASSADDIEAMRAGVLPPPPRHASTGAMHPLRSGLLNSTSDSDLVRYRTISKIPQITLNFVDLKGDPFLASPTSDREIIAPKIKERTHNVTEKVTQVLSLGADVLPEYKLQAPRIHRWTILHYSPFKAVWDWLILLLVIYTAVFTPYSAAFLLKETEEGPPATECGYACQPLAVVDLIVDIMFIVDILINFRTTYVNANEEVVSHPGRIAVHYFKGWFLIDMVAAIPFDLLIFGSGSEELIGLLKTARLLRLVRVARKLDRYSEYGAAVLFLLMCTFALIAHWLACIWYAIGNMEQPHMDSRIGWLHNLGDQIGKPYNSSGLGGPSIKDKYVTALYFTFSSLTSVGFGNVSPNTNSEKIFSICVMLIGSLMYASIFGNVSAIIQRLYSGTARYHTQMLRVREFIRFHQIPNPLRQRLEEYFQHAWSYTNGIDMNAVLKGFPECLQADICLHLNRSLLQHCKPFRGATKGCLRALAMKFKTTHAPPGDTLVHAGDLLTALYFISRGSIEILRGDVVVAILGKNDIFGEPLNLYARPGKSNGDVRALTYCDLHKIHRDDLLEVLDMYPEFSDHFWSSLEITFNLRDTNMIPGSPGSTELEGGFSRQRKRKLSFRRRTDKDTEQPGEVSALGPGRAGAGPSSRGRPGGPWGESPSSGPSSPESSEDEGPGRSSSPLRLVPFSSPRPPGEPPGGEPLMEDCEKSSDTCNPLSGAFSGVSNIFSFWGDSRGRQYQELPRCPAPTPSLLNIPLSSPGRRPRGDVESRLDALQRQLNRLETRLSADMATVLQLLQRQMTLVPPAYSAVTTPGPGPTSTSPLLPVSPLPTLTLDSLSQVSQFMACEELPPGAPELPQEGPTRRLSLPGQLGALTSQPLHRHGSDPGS
Sequence of Cytochrome P450 2D6 (P10635 whole entry): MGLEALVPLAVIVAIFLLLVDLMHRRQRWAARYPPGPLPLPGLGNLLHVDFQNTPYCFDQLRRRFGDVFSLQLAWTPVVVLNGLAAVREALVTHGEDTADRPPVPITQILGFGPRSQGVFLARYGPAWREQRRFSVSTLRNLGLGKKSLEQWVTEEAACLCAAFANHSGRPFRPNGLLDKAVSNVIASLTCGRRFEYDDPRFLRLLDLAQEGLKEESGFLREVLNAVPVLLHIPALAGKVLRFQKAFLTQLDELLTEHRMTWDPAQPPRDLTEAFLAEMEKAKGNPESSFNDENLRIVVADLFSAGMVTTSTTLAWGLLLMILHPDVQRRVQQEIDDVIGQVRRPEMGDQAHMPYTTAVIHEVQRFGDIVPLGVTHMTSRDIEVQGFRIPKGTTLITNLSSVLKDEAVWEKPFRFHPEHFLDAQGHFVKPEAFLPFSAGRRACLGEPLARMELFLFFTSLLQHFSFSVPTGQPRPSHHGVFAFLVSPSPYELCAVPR
Sequence of Cytochrome P450 3A4 (P08684 whole entry): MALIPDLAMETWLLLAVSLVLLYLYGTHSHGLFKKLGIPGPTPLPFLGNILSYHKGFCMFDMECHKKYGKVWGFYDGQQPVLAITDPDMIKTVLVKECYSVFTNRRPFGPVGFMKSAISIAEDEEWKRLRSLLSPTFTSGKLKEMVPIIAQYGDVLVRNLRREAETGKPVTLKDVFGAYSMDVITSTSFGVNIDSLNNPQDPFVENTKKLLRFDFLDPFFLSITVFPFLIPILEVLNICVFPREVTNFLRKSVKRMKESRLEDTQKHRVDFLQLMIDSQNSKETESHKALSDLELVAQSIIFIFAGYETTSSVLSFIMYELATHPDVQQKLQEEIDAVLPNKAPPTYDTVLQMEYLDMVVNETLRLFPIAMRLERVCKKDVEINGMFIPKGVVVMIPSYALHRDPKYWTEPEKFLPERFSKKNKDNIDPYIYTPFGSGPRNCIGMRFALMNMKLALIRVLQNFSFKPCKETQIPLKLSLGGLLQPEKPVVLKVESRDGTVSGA
Sequence of Cytochrome P450 2C19 (P33261 whole entry): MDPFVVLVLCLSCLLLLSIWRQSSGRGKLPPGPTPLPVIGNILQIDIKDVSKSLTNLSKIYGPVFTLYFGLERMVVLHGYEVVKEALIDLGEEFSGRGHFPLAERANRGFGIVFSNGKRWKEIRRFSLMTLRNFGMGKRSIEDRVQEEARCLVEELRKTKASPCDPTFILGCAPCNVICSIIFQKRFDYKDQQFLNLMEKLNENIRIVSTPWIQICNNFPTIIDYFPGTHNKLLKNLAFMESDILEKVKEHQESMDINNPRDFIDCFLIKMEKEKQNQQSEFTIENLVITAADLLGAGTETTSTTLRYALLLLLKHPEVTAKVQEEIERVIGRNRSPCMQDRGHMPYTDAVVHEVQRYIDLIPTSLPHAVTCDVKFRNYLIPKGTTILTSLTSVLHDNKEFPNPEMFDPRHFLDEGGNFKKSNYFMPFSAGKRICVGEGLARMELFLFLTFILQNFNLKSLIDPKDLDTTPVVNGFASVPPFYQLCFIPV
Sequence of Cytochrome P450 2C9 (P11712 whole entry): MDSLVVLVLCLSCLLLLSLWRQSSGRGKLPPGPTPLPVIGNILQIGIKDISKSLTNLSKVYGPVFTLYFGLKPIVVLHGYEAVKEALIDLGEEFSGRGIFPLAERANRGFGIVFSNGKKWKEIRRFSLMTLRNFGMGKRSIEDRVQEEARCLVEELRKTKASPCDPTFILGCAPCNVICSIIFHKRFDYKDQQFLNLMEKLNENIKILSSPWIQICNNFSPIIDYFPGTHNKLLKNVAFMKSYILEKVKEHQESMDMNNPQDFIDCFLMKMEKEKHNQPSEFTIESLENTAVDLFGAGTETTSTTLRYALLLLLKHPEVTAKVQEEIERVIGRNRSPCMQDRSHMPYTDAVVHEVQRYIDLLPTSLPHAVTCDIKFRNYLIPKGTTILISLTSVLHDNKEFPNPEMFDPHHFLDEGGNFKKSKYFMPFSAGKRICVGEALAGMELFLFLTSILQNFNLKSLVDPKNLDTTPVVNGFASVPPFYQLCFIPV

With `COC[C@H]1CCCN1c1cc(NC(C)=O)nc(-n2nc(C)cc2C)n1` the Tmax [1] was 54 min, the Ki (Adenosine receptor A2a [2]) was 0.0047 µM and the IC50 (Adenosine receptor A2a [3]) was 0.085 µM. It also gave a Ki (Adenosine receptor A1) of 0.162 µM, a logD [4] of 2.2 and a solubility [5] of 1 mg/mL (≈ 2900 µM). For the same compound, the Ki (Adenosine receptor A2a [6]) was 0.048 µM, the IC50 (Cytochrome P450 3A4) was over 50 µM and the IC50 (Cytochrome P450 2D6) was over 50 µM. For the same compound, the IC50 (Cytochrome P450 2C9) was over 50 µM, the IC50 (Cytochrome P450 2C19) was over 50 µM and the IC50 (Cytochrome P450 1A2) was 11 µM. The Papp [7] was 700 nm/s, the Ratio (Caco-2) was 0.7 and the inhibition at 10 µM (hERG (KCNH2)) was 19%. The concentration at 1 h [8] was 863 ng/g, the concentration at 4 h [9] was 116 ng/g and the concentration at 1 h [10] was 1.6 µg/mL. It also gave a concentration at 4 h [11] of 0.333 µg/mL, a Kp at 1 h [12] of 0.51 and a Kp at 4 h [13] of 0.33. The Activity (Rattus norvegicus [14]) was “Active”, the Activity (Rattus norvegicus [15]) was “Active” and the Activity (Rattus norvegicus [16]) was “Dose-dependent effect”. For the same compound, the Ki (Adenosine receptor A2b) was 0.145 µM, the Ki (Adenosine receptor A3) was 0.019 µM and the concentration at 2 h [17] was 0.098 µg/mL. It also gave a concentration at 2 h [18] of 1.06 µg/mL, a concentration at 2 h [19] of 4.64 µg/mL and a concentration at 2 h [20] of 34 ng/g. For the same compound, the concentration at 2 h [21] was 488 ng/g, the concentration at 2 h [22] was 2020 ng/g and the Kp at 2 h [23] was 0.37. The Kp at 2 h [24] was 0.46 and the Kp at 2 h [25] was 0.45.
